Measured values from PMC8766838, “Discovery of Small Molecule NSC290956 as a Therapeutic Agent for KRas Mutant Non-Small-Cell Lung Cancer” (Frontiers in Pharmacology, 2022).

Assays:
KRas = molecular target: T1, KRas (Homo sapiens, UniProt P01116, G12S); assay: CETSA in A549 cells ([…]°C stabilization at […]); type: cell-based
T1 construct: endogenous, A549 cells

HRasG60A = molecular target: T2, HRasG60A (Homo sapiens, UniProt P01112, G60A); assay: SPR (steady-state); circular dichroism in support; type: binding
T2 construct: gene HRAS
T2 sequence (P01112 1-166 G60A): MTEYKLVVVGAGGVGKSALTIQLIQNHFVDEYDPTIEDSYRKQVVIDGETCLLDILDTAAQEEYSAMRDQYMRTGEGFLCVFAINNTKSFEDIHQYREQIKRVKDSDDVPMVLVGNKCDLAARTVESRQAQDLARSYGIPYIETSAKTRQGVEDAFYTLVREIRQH

## O=C1CSC2(CCN(CCCN3c4ccccc4Sc4ccc(Cl)cc43)CC2)N1 [NSC290956, 1-Thia-4,8-diazaspiro[4.5]decan-3-one,8-[3-(2-chloro-10H-phenothiazin-10-yl)propyl]]
KRas
  CETSA in A549 cells (4-6°C stabilization at 25 μM): target engagement of NSC290956 in KRas-addicted H358 (KRasG12C) and A549 (KRasG12S) cell lines
HRasG60A
  Kd: 21.3 µM
